Measured values reported in US20230121721A1, “MONOACYLGLYCEROL LIPASE INHIBITORS” (STICHTING HET NEDERLANDS KANKER INSTITUUT - ANTONI VAN …, priority 2020, published 2023).

Target: T1, hMAGL (MAGL-overexpressing membrane preparations from transiently transfected HEK293T cells) (Homo sapiens, UniProt Q99685)
T1 construct: expressed in transfected cells; host or cells: HEK293T (transient transfection), membrane preparations
T1 sequence (Q99685 1-303): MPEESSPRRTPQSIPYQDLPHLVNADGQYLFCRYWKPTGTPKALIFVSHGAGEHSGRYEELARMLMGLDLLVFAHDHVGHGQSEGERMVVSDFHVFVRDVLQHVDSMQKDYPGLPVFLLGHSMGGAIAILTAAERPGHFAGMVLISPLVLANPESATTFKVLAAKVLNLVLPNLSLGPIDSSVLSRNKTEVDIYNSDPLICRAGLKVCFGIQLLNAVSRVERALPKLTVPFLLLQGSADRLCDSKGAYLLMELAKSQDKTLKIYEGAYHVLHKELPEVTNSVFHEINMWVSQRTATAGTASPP
Assay: MAGL activity assay (2-AG hydrolysis, glycerol coupled to Amplifu Red fluorescence)
Format: biochemical
Conditions: hMAGL-overexpressing HEK293T membranes, 25 μM 2-AG substrate, 20 min. inhibitor incubation
Excerpt: The MAGL activity assay is based on the production of glycerol from 2-arachidonoylglycerol (2-AG) hydrolysis by MAGL-overexpressing membrane preparations from transiently transfected HEK293T cells, as previously reported in van der Wel T et al., “A natural substrate-based fluorescence assay for inhibitor screening on diacylglycerol lipase”, J Lipid Res., 2015, 56(4), 927-35. The produced glycerol is coupled to the oxidation of commercially available Amplifu™ Red (Sigma-Aldrich Chemie N.V., Zwijndrecht, Netherlands) via a multi-enzyme cascade, resulting in a fluorescent signal from the dye resorufin.
Standard assays were performed in HEMNB buffer (50 mM HEPES pH 7.4, 1 mM EDTA, 5 mM MgCl2, 100 mM NaCl, 0.5% (w/v) BSA) in black, flat bottom 96-wells plates. Final protein concentration of membrane preparations from overexpressing hMAGL HEK293T cells was 1.5 μg/mL (0.3 μg per well). Inhibitors were added from 40× concentrated DMSO stocks. […] Final assay concentrations: 0.2 U/mL GK, GPO and HRP, 0.125 mM ATP, 10 μM Amplifu™ Red, 25 μM 2-AG, 5% DMSO, 0.5% ACN in a total volume of 200 μL.
For IC50 determination, the MAGL-overexpressing membranes were incubated with different inhibitor concentrations. Slopes of corrected fluorescence in time were determined in the linear interval of t=10 to t=35 min and then scaled to the corrected positive control of hMAGL-overexpressing membranes treated with vehicle (DMSO) as a 100% activity reference point. The data was exported to GraphPad Prism 5.0 and analysed in a non-linear dose-response analysis with variable slope.

SMILES	IC50 [nM]
CCOC(=O)C[S+]([O-])c1ccc(C(=O)N2CCN(c3ccc(Cl)c(Cl)c3)CC2)cc1[N+](=O)[O-] (stereo not drawn) [Example 22, Ethyl 2-((4-(4-(3,4-dichlorophenyl)piperazine-1-carbonyl)-2-nitrophenyl)sulfinyl)acetate]	2570
CCOC(=O)C[S+]([O-])c1c(F)cc(C(=O)N2CCN(c3cccc(Cl)c3)[C@H](C)C2)cc1F (stereo partly drawn) [Example 106, Ethyl 2-((4-((R)-4-(3-chlorophenyl)-3-methylpiperazine-1-carbonyl)-2,6-difluorophenyl)sulfinyl)acetate]	282
C[C@@H]1[C@@H](C)N(c2cccc(Cl)c2)CCN1C(=O)c1ccc([S+]([O-])CC(=O)OC2CCCCC2)c(Cl)c1 (mixture of isomers) [Example 60, (±) Cyclohexyl 2-((2-chloro-4-(4-(3-chlorophenyl)-trans-2,3-dimethylpiperazine-1-carbonyl)phenyl)sulfinyl)acetate]	2.95
C[C@H]1[C@H](C)N(c2cccc(Cl)n2)CCN1C(=O)c1ccc([S+]([O-])CC(=O)C(C)(F)F)c(Cl)c1 (mixture of isomers) [Example 81, (±) 1-((2-chloro-4-(4-(6-chloropyridin-2-yl)-trans-2,3-dimethylpiperazine-1-carbonyl)phenyl)sulfinyl)-3,3-difluorobutan-2-one]	0.851
C[C@@H]1CN(C(=O)c2ccc([S+]([O-])CC(=O)OCCCO)c([N+](=O)[O-])c2)CCN1c1cccc(Cl)c1 (stereo partly drawn) [Example 41, 3-Hydroxypropyl 2-((4-((R)-4-(3-chlorophenyl)-3-methylpiperazine-1-carbonyl)-2-nitrophenyl)sulfinyl)acetate]	34.7
CCC(C)OC(=O)C[S+]([O-])c1ccc(C(=O)N2CCN(c3cccc(Cl)c3)[C@H](C)[C@H]2C)cc1Cl (mixture of isomers) [Example 57, (±) sec-Butyl 2-((2-chloro-4-(4-(3-chlorophenyl)-trans-2,3-dimethylpiperazine-1-carbonyl)phenyl)sulfinyl)acetate]	3.89
C[C@H]1[C@H](C)N(c2cccc(Cl)c2)CCN1C(=O)c1ccc([S+]([O-])CC(=O)c2cccnn2)c(Cl)c1 (mixture of isomers) [Example 88, (±) 2-((2-Chloro-4-(4-(3-chlorophenyl)-trans-2,3-dimethylpiperazine-1-carbonyl)phenyl)sulfinyl)-1-(pyridazin-3-yl)ethan-1-one]	251
C[C@H]1[C@H](C)N(c2cccc(Cl)c2)CCN1C(=O)c1ccc(SCC(=O)C(F)(F)F)c(Cl)c1 (racemic) [Example 72, (±) 3-((2-Chloro-4-(4-(3-chlorophenyl)-trans-2,3-dimethylpiperazine-1-carbonyl)phenyl)thio)-1,1,1-trifluoropropan-2-one]	20.9
C[C@H]1[C@H](C)N(c2cccc(Cl)c2)CCN1C(=O)c1ccc([S+]([O-])CC(=O)c2ccc(Cl)c(C(F)(F)F)c2)c(Cl)c1 (mixture of isomers) [Example 91, (±) 1-(4-Chloro-3-(trifluoromethyl)phenyl)-2-((2-chloro-4-(4-(3-chlorophenyl)-trans-2,3-dimethyl-piperazine-1-carbonyl)-phenyl)sulfinyl)ethan-1-one]	> 10000
CCOC(=O)C[S+]([O-])c1ccc(C(=O)N2CCN(c3cccc(-c4ccccc4)c3)CC2)cc1[N+](=O)[O-] (stereo not drawn) [Example 20, Ethyl 2-((4-(4-([1,1′-biphenyl]-3-yl)piperazine-1-carbonyl)-2-nitrophenyl)sulfinyl)acetate]	1350
C[C@H]1[C@H](C)N(c2cccc(Cl)c2)CCN1C(=O)c1ccc([S+]([O-])CC(=O)c2ccc(C(F)(F)F)nc2)c(Cl)c1 (mixture of isomers) [Example 90, (±) 2-((2-Chloro-4-(4-(3-chlorophenyl)-trans-2,3-dimethylpiperazine-1-carbonyl)phenyl)sulfinyl)-1-(6-(trifluoromethyl)pyridin-3-yl)ethan-1-one]	813
CCOC(=O)CC(=O)c1ccc(C(=O)N2CCN(c3cccc(Cl)c3)[C@H](C)[C@H]2C)cc1Cl (racemic) [Example 55, (±) Ethyl 3-(2-chloro-4-(4-(3-chlorophenyl)-trans-2,3-dimethylpiperazine-1-carbonyl)phenyl)-3-oxopropanoate]	1150
C[C@H]1[C@H](C)N(c2cccc(Cl)c2)CCN1C(=O)c1ccc([S+]([O-])CC(=O)c2ccccc2)c(Cl)c1 (mixture of isomers) [Example 104, (±) 2-((2-Chloro-4-(4-(3-chlorophenyl)-trans-2,3-dimethylpiperazine-1-carbonyl)phenyl)sulfinyl)-1-phenylethan-1-one]	2290
Cc1cnc(C(=O)C[S+]([O-])c2ccc(C(=O)N3CCN(c4cccc(Cl)c4)[C@@H](C)[C@@H]3C)cc2Cl)o1 (mixture of isomers) [Example 76, (±) 2-((2-Chloro-4-(4-(3-chlorophenyl)-trans-2,3-dimethylpiperazine-1-carbonyl)phenyl)sulfinyl)-1-(5-methyloxazol-2-yl)ethan-1-one]	380
C[C@@H]1[C@@H](C)N(c2cccc(Cl)c2)CCN1C(=O)c1ccc([S+]([O-])CC(=O)OC2CCC2)c(Cl)c1 (mixture of isomers) [Example 58, (±) Cyclobutyl 2-((2-chloro-4-(4-(3-chlorophenyl)-trans-2,3-dimethylpiperazine-1-carbonyl)phenyl)sulfinyl)acetate]	4.17
C[C@H]1[C@H](C)N(c2cccc(Cl)c2)CCN1C(=O)c1ccc([S+]([O-])CC(=O)c2ccc(C#N)cn2)c(Cl)c1 (mixture of isomers) [Example 105, (±) 6-(2-((2-Chloro-4-(4-(3-chlorophenyl)-trans-2,3-dimethylpiperazine-1-carbonyl)phenyl)sulfinyl)acetyl)nicotinonitrile]	10
CCOC(=O)C[S+]([O-])c1ccc(C(=O)N2CCN(c3cccc(C)c3)[C@@H](C)C2)cc1[N+](=O)[O-] (stereo partly drawn) [Example 2, Ethyl 2-((4-((S)-3-methyl-4-(m-tolyl)piperazine-1-carbonyl)-2-nitrophenyl)sulfinyl)acetate]	269
CCN(C)C(=O)C[S+]([O-])c1ccc(C(=O)N2CCN(c3cccc(Cl)c3)[C@H](C)C2)cc1[N+](=O)[O-] (stereo partly drawn) [Example 33, 2-((4-((R)-4-(3-Chlorophenyl)-3-methylpiperazine-1-carbonyl)-2-nitrophenyl)sulfinyl)-N-ethyl-N-methylacetamide]	> 10000
CCOC(=O)C[S+]([O-])c1ccc(C(=O)N2CCN(c3cc(Cl)ccn3)[C@@H](C)[C@@H]2C)cc1Cl (mixture of isomers) [Example 71, (±) Ethyl 2-((2-chloro-4-(-4-(4-chloropyridin-2-yl)-trans-2,3-dimethylpiperazine-1-carbonyl)phenyl)sulfinyl)acetate]	8.71
CCOC(=O)C[S+]([O-])c1ccc(C(=O)N2CCN(c3ccc(C(F)(F)F)cc3)CC2)cc1[N+](=O)[O-] (stereo not drawn) [Example 16, Ethyl 2-((2-nitro-4-(4-(4-(trifluoromethyl)phenyl)piperazine-1-carbonyl)phenyl)sulfinyl)acetate]	589
C[C@H]1[C@H](C)N(c2cccc(Cl)c2)CCN1C(=O)c1ccc([S+]([O-])CC(=O)OC2CCOCC2)c(Cl)c1 (mixture of isomers) [Example 67, (±) tetraHydro-2H-pyran-4-yl 2-((2-chloro-4-(4-(3-chlorophenyl)-trans-2,3-dimethylpiperazine-1-carbonyl)phenyl)sulfinyl)acetate]	12.9
CCOC(=O)C[S+]([O-])c1ccc(C(=O)N2CCN(c3cncc(Cl)c3)[C@@H](C)[C@@H]2C)cc1Cl (mixture of isomers) [Example 68, (±) Ethyl 2-((2-chloro-4-(-4-(5-chloropyridin-3-yl)-trans-2,3-dimethylpiperazine-1-carbonyl)phenyl)sulfinyl)acetate]	20.9
CCOC(=O)C[S+]([O-])c1ccc(C(=O)N2CCN(c3ccc(Cl)cc3Cl)CC2)cc1[N+](=O)[O-] (stereo not drawn) [Example 23, Ethyl 2-((4-(4-(2,4-dichlorophenyl)piperazine-1-carbonyl)-2-nitrophenyl)sulfinyl)acetate]	1950
C[C@H]1[C@H](C)N(c2cccc(Cl)c2)CCN1C(=O)c1ccc([S+]([O-])CC(=O)c2ccc(F)cc2)c(Cl)c1 (mixture of isomers) [Example 86, (±) 2-((2-Chloro-4-(4-(3-chlorophenyl)-trans-2,3-dimethylpiperazine-1-carbonyl)phenyl)sulfinyl)-1-(4-fluorophenyl)ethan-1-one]	1910
